Data from patent US20210254138A1, “SIALIC ACID TRANSPORTER PROTEINS AS BIOMARKERS AND DRUG TARGETS” (Quadram Institute Bioscience, priority 2018, published 2021).

Molecular target: T1, RUMGNA_02695 (RgNanOx, oxidoreductase) (Mediterraneibacter gnavus, UniProt A7B558)
T1 construct: the full length RgNanA and full length RUMGNA_02695 were amplified from R. gnavus ATCC 29149 gDNA; His6 (pHISTEV vector) (N); made in house; host or cells: E. coli BL21
Assay: RUMGNA_02695 enzymatic activity assay
Assay type: biochemical, R. gnavus ATCC 29149
Experimental: To assay RUMGNA_02695 activity against 2,7-anhydro-Neu5Ac, the purified recombinant protein was incubated in 100 μl reactions at 37° C. overnight with 1 mM 2,7-anhydro-Neu5Ac, 50 mM sodium phosphate buffer pH 7.0 and 500 μM NADH, NAD, FAD or no cofactor. The reactions were dried using a Concentrator Plus (Eppendorf) for 1 h. Samples were then resuspended in 50 μl of water and 50 μl of reaction buffer (1.74 mg of 1,2-Diamino-4,5-methylenedioxybenzene dihydrochloride (Carbosynth, UK), 324.6 μl MilliQ water, 88.6 μl glacial acetic acid, 58.2 μl of β-Mercaptoethanol and 79.3 μl of sodium hydrosulphite) and incubated for 2 h at 55° C. in the dark. The samples were then centrifuged for 1 min and filtered using a 0.45 μm filter into a glass HPLC vial and directly analysed by HPLC.
DMB-labelled samples were analysed by injecting 10 μl onto a Luna 5 μm C-18(2) LC column 250×4.6 mm (Phenomenex) at 1 ml/min. Mobile phases methanol/acetonitrile/water were used for separation of fluorescently labelled sialic acids. The settings of the fluorescence detector were 373 nm excitation and 448 nm emission. Samples were run alongside a Neu5Ac standard.
To determine the kinetic parameters of RUMGNA_02695 enzymatic reaction, a coupled reaction with lactate dehydrogenase and sialic acid aldolase was carried out as described above but with 15 μg of RgNanA and 10 μg RUMGNA_02695 in each reaction. For the kinetics assays, 1, 0.4, 0.2, 0.1, 0.04, 0.02 and 0.01 mM 2,7-anhydro-Neu5Ac was used and the initial rate of reaction determined for each concentration in triplicate before analysis was performed by fitting the data to a Michaelis-Menten using Graph Pad Prism (V 5.03).
Electrospray ionisation spray mass spectrometry (ESI-MS) analysis was performed using the Applied Biosystems 4000 Q-TRAP. The full 100 μl reaction was diluted with 500 ul of 50% Acetonitrile and 0.1% formic acid and samples analysed in negative ion mode using direct injection.

[1] = coupled reaction with excess aldolase and lactate dehydrogenase

T1 sequence (A7B558 whole entry): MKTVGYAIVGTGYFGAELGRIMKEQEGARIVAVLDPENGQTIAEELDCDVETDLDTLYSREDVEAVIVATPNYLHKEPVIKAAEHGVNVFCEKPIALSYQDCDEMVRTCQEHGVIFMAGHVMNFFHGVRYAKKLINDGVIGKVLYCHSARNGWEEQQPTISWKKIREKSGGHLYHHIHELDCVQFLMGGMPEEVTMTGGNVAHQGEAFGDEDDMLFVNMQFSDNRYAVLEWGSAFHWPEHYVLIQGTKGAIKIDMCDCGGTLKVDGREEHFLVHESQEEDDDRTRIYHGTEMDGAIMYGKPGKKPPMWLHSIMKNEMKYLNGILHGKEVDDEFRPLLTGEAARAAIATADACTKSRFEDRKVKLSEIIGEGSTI

## CC(=O)N[C@H]1C2OC(C(=O)O)(C[C@@H]1O)O[C@@H]2[C@H](O)CO (stereo partly drawn) [2,7-anhydro-Neu5Ac]
1 mM substrate, in the presence of NAD+ or NADH, not with FAD or without cofactor
  reaction product by HPLC after DMB labelling: Neu5Ac was observed as a reaction product
[1]
  Km: 74 ± 14 µM
  kcat: 0.0824 ± 0.0043 s⁻¹
